This note sets out measurements from US20260176320A1, “MODULATORS OF G-PROTEIN COUPLED RECEPTORS” (priority 2018, published 2026).

Structures are written as SMILES. Read-outs that look alike come from different tables or passages of the source. Bounds are passed on as bounds.

In one test the target is T1, GIP-R (Homo sapiens, UniProt P48546).
T1 sequence (P48546 22-466): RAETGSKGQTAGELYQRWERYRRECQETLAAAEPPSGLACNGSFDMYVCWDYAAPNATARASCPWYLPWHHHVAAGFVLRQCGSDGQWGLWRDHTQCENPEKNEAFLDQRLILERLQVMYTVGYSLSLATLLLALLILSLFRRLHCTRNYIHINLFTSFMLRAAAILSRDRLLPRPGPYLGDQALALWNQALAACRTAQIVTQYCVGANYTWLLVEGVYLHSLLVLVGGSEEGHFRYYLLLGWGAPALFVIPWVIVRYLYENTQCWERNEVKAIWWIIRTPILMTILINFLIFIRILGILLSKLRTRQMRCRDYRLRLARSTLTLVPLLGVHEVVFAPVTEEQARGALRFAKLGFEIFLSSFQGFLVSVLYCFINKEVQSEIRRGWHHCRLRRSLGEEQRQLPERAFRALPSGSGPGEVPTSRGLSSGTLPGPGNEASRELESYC
As to the kind of experiment: HitHunter cAMP assay (GIP-R). The format is cell-based. Particulars: cAMP; for Emax: read-out: (Emax) GIP-R. The method, boiled down: (§1)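 cAMP accumulation read by luminescent HitHunter immunocompetition after 30 min room-temperature agonist stimulation. Agonists tested as 22-point twofold dilutions, in duplicate, on 10,000 cells/well in HBSS containing 625 μM IBMX, 10 mM HEPES and 0.2% BSA.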
(In general: Changes in cAMP serve as a functional read-out for many G protein-coupled receptors.)

The next test concerns the target GLP-1R (Homo sapiens, UniProt P43220). In words: HitHunter cAMP assay (GLP-1R). The format is cell-based. Particulars: cAMP; for Emax: read-out: (Emax) GLP-1R. The method, boiled down:
as §1

[1] abbreviates: Table 3, read-out: EC50 GIP-R/nM.
Where [2] appears, read: Table 3A, read-out: EC50 GIP-R/nM.
The mark [3] stands for this setting: Table 3, read-out: EC50 GLP-1R/nM.
Setting [4] is: Table 3A, read-out: EC50 GLP-1R/nM.

Sequence of GLP-1R (P43220 24-463): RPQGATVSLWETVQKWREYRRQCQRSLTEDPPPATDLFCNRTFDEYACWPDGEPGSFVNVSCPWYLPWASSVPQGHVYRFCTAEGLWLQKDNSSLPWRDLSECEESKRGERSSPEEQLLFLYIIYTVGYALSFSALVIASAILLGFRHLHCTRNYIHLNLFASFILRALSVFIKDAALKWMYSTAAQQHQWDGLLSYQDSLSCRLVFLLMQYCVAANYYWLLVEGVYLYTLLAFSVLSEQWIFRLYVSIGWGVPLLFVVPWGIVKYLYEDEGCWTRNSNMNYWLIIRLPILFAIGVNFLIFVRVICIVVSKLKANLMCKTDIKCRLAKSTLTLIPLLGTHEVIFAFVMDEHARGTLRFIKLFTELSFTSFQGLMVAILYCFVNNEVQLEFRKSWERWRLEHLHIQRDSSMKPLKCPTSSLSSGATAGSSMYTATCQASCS

In general, Emax refers to the size of the effect at its maximum, as opposed to the concentration needed. For `CCCCCCCCCCCCCCCC(=O)N[C@@H](CCC(=O)NCCCC[C@H](NC(=O)[C@H](CO)NC(=O)[C@@H]1CCCN1C(=O)[C@@H]1CCCN1C(=O)[C@@H]1CCCN1C(=O)[C@H](C)NC(=O)CNC(=O)[C@H](CO)NC(=O)[C@H](CO)NC(=O)[C@@H]1CCCN1C(=O)CNC(=O)CNC(=O)[C@H](C)NC(=O)[C@H](CC(C)C)NC(=O)[C@H](CC(C)C)NC(=O)[C@H](Cc1c[nH]c2ccccc12)NC(=O)[C@H](CC(N)=O)NC(=O)[C@@H](NC(=O)[C@H](Cc1ccccc1)NC(=O)[C@H](CCC(=O)O)NC(=O)C(C)(C)NC(=O)[C@H](C)NC(=O)[C@H](C)NC(=O)[C@H](CCC(N)=O)NC(=O)[C@H](CCCCN)NC(=O)[C@H](CC(=O)O)NC(=O)[C@H](CC(C)C)NC(=O)[C@H](Cc1ccc(O)cc1)NC(=O)[C@@H](NC(=O)[C@H](CO)NC(=O)[C@H](Cc1ccc(O)cc1)NC(=O)[C@H](CC(=O)O)NC(=O)[C@H](CO)NC(=O)[C@@H](NC(=O)[C@H](Cc1ccccc1)NC(=O)[C@@H](NC(=O)CNC(=O)[C@H](CCC(=O)O)NC(=O)CSCC(=O)NCCN1C(=O)C[C@@H](OC)C1=O)[C@@H](C)O)[C@@H](C)O)[C@@H](C)CC)C(C)C)C(N)=O)C(=O)O` [Compound 48], the EC50 on GIP-R (EC50 GIP-R/nM, Table 3) lay in the range of 0.1 to 1 nM; on GIP-R (EC50 GIP-R/nM, Table 3A) it was 0.1 to 1 nM; at GLP-1R (EC50 GLP-1R/nM, Table 3) it was 0.1 to 1 nM; at GLP-1R (EC50 GLP-1R/nM, Table 3A), 0.1 to 1 nM. In addition, the Emax came out at 65% at GIP-R (Table 3), 65% on GIP-R (Table 3A), 104% on GLP-1R (Table 3) and 104% at GLP-1R (Table 3A).
As for `CC[C@H](C)[C@H](NC(=O)[C@H](CO)NC(=O)[C@H](Cc1ccc(O)cc1)NC(=O)[C@H](CC(=O)O)NC(=O)[C@H](CO)NC(=O)[C@@H](NC(=O)[C@H](Cc1ccccc1)NC(=O)[C@@H](NC(=O)CNC(=O)[C@H](CCC(=O)O)NC(=O)CSCC(=O)NCCN1C(=O)CN(C)C1=O)[C@@H](C)O)[C@@H](C)O)C(=O)N[C@@H](Cc1ccc(O)cc1)C(=O)N[C@@H](CC(C)C)C(=O)N[C@@H](CC(=O)O)C(=O)N[C@@H](CCCCN)C(=O)N[C@@H](CCC(N)=O)C(=O)N[C@@H](C)C(=O)N[C@@H](C)C(=O)NC(C)(C)C(=O)N[C@@H](CCC(=O)O)C(=O)N[C@@H](Cc1ccccc1)C(=O)N[C@H](C(=O)N[C@@H](CC(N)=O)C(=O)N[C@@H](Cc1c[nH]c2ccccc12)C(=O)N[C@@H](CC(C)C)C(=O)N[C@@H](CC(C)C)C(=O)N[C@@H](C)C(=O)NCC(=O)NCC(=O)N1CCC[C@H]1C(=O)N[C@@H](CO)C(=O)N[C@@H](CO)C(=O)NCC(=O)N[C@@H](C)C(=O)N1CCC[C@H]1C(=O)N1CCC[C@H]1C(=O)N1CCC[C@H]1C(=O)N[C@@H](CO)C(=O)N[C@@H](CCCCN)C(N)=O)C(C)C` [Compound 112], the EC50 on GIP-R (setting [1]), on GIP-R (setting [2]), at GLP-1R (setting [3]) and on GLP-1R (setting [4]) was 10 to 100 nM throughout. Also, the Emax at 1 µM on GIP-R (read-out: (Emax) GIP-R at 1 μM, Table 3) is 26%; on GIP-R (read-out: (Emax) GIP-R at 1 μM, Table 3A), 26%. Also, the Emax on GLP-1R (Table 3) and at GLP-1R (Table 3A) was 94% each time.
For the compound `CCCCCCCCCCCCCCCC(=O)N[C@@H](CCC(=O)NCCCC[C@H](NC(=O)[C@H](CO)NC(=O)[C@@H]1CCCN1C(=O)[C@@H]1CCCN1C(=O)[C@@H]1CCCN1C(=O)[C@H](C)NC(=O)CNC(=O)[C@H](CO)NC(=O)[C@H](CO)NC(=O)[C@@H]1CCCN1C(=O)CNC(=O)CNC(=O)[C@H](C)NC(=O)[C@H](CC(C)C)NC(=O)[C@H](CC(C)C)NC(=O)[C@H](Cc1c[nH]c2ccccc12)NC(=O)[C@H](CC(N)=O)NC(=O)[C@@H](NC(=O)[C@H](Cc1ccccc1)NC(=O)[C@H](CCC(=O)O)NC(=O)C(C)(C)NC(=O)[C@H](C)NC(=O)[C@H](C)NC(=O)[C@H](CCC(N)=O)NC(=O)[C@H](CCCCN)NC(=O)[C@H](CC(=O)O)NC(=O)[C@H](CC(C)C)NC(=O)[C@H](Cc1ccc(O)cc1)NC(=O)[C@@H](NC(=O)[C@H](CO)NC(=O)[C@H](Cc1ccc(O)cc1)NC(=O)[C@H](CC(=O)O)NC(=O)[C@H](CO)NC(=O)[C@@H](NC(=O)[C@H](Cc1ccccc1)NC(=O)[C@@H](NC(=O)CNC(=O)[C@H](CCC(=O)O)NC(=O)CSCC(=O)NCCN1CC[C@@H](O)C1=O)[C@@H](C)O)[C@@H](C)O)[C@@H](C)CC)C(C)C)C(N)=O)C(=O)O` [Compound 47], the Emax on GIP-R (Table 3) is 24%; at GIP-R (Table 3A), 24%; on GLP-1R (Table 3) it was 100%; at GLP-1R (Table 3A) it was 100%. For the same compound, the EC50 at GIP-R (setting [1]) was 1 to 10 nM; on GIP-R (setting [2]), 10 to 100 nM; on GLP-1R (setting [3]), less than 0.1 nM; at GLP-1R (setting [4]), less than 0.1 nM.
As to `CC[C@H](C)[C@H](NC(=O)[C@H](CO)NC(=O)[C@H](Cc1ccc(O)cc1)NC(=O)[C@H](CC(=O)O)NC(=O)[C@H](CO)NC(=O)[C@@H](NC(=O)[C@H](Cc1ccccc1)NC(=O)[C@@H](NC(=O)CNC(=O)[C@H](CCC(=O)O)NC(=O)CSCC(=O)NCCN1C(=O)c2ccc([N+](=O)[O-])cc2C1=O)[C@@H](C)O)[C@@H](C)O)C(=O)N[C@@H](Cc1ccc(O)cc1)C(=O)N[C@@H](CC(C)C)C(=O)N[C@@H](CC(=O)O)C(=O)N[C@@H](CCCCN)C(=O)N[C@@H](CCC(N)=O)C(=O)N[C@@H](C)C(=O)N[C@@H](C)C(=O)NC(C)(C)C(=O)N[C@@H](CCC(=O)O)C(=O)N[C@@H](Cc1ccccc1)C(=O)N[C@H](C(=O)N[C@@H](CC(N)=O)C(=O)N[C@@H](Cc1c[nH]c2ccccc12)C(=O)N[C@@H](CC(C)C)C(=O)N[C@@H](CC(C)C)C(=O)N[C@@H](C)C(=O)NCC(=O)NCC(=O)N1CCC[C@H]1C(=O)N[C@@H](CO)C(=O)N[C@@H](CO)C(=O)NCC(=O)N[C@@H](C)C(=O)N1CCC[C@H]1C(=O)N1CCC[C@H]1C(=O)N1CCC[C@H]1C(=O)N[C@@H](CO)C(=O)N[C@@H](CCCCN)C(N)=O)C(C)C` [Compound 107], the EC50 on GIP-R (EC50 GIP-R/nM, Table 3) lay in the range of 0.1 to 1 nM; at GIP-R (EC50 GIP-R/nM, Table 3A), 0.1 to 1 nM; on GLP-1R (EC50 GLP-1R/nM, Table 3), 10 to 100 nM; at GLP-1R (EC50 GLP-1R/nM, Table 3A), 10 to 100 nM. The Emax worked out at 124% at GIP-R (Table 3), 124% at GIP-R (Table 3A), 57% on GLP-1R (Table 3) and 57% on GLP-1R (Table 3A).
For the compound `CC[C@H](C)[C@H](NC(=O)[C@H](CO)NC(=O)[C@H](Cc1ccc(O)cc1)NC(=O)[C@H](CC(=O)O)NC(=O)[C@H](CO)NC(=O)[C@@H](NC(=O)[C@H](Cc1ccccc1)NC(=O)[C@@H](NC(=O)CNC(=O)[C@H](CCC(=O)O)NC(=O)CCCCCCCN1C(=O)CSC1=O)[C@@H](C)O)[C@@H](C)O)C(=O)N[C@@H](Cc1ccc(O)cc1)C(=O)N[C@@H](CC(C)C)C(=O)N[C@@H](CC(=O)O)C(=O)N[C@@H](CCCCN)C(=O)N[C@@H](CCC(N)=O)C(=O)N[C@@H](C)C(=O)N[C@@H](C)C(=O)NC(C)(C)C(=O)N[C@@H](CCC(=O)O)C(=O)N[C@@H](Cc1ccccc1)C(=O)N[C@H](C(=O)N[C@@H](CC(N)=O)C(=O)N[C@@H](Cc1c[nH]c2ccccc12)C(=O)N[C@@H](CC(C)C)C(=O)N[C@@H](CC(C)C)C(=O)N[C@@H](C)C(=O)NCC(=O)NCC(=O)N1CCC[C@H]1C(=O)N[C@@H](CO)C(=O)N[C@@H](CO)C(=O)NCC(=O)N[C@@H](C)C(=O)N1CCC[C@H]1C(=O)N1CCC[C@H]1C(=O)N1CCC[C@H]1C(=O)N[C@@H](CO)C(=O)N[C@@H](CCCCN)C(N)=O)C(C)C` [Compound 175], the EC50 lay within 10 to 100 nM on GIP-R (EC50 GIP-R/nM, Table 3); 10 to 100 nM at GIP-R (EC50 GIP-R/nM, Table 3A); 10 to 100 nM on GLP-1R (EC50 GLP-1R/nM, Table 3); 10 to 100 nM on GLP-1R (EC50 GLP-1R/nM, Table 3A). The Emax at GIP-R (Table 3) was 38%; on GIP-R (Table 3A), 38%; on GLP-1R (Table 3), 87 to 94%; on GLP-1R (Table 3A), 87 to 94%.
